The values that follow come from patent publication US11203613B2, “Peptidomimetic proteasome inhibitors” (CORNELL UNIVERSITY, priority 2017, dated 2021).

pIC50: −log10 of the molar value. Several values for one entry are separate records, joined by “and”; a condition that tells them apart may be missing. Equal entries are not always repeated. Where two headings read alike, the source gives them in different places.

Assay [1] deals with Human Constitutive (Hu C-20S) β5 Active Subunit (Homo sapiens, UniProt P28074). The experiment in a line: IC50 determination, human constitutive 20S proteasome β5c (suc-LLVY-AMC hydrolysis). Format: biochemical. The following applies: Table 2; several values in a cell are repeat determinations; read-out: Hu c-20S IC50.
A further assay addresses Mtb20SOG (Mycobacterium tuberculosis, UniProt P9WHT9). The assay can be described thus: biochemical.
[2] abbreviates: Table 2, several values in a cell are repeat determinations.

Mtb20SOG, sequence (P9WHT9 58-291): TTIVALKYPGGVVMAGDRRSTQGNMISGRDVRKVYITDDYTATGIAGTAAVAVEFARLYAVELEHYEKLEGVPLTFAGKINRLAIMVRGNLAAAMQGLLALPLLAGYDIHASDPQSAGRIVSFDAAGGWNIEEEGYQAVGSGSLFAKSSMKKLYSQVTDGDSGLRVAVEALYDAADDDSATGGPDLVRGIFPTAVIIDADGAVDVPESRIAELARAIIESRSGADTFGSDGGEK

Take `Cc1cc(C(=O)N[C@@H](CC(=O)N2CCCC[C@@H]2C)C(=O)N[C@@H](C)c2ncc(-c3ccc(F)cc3F)[nH]2)no1` [CF-503111]: the pIC50 was 5.14 and 5.26 in assay [1]; 7.39 and 7.47 at Mtb20SOG.

In the case of `Cc1cc(C(=O)N[C@@H](CC(=O)N2CCC[C@@H]2c2ccccc2)C(=O)NC(C)c2nc3ccccc3[nH]2)no1` (stereo partly shown) [CF-503127], the pIC50 is 5.15 in assay [1]; 7.08 and 7.00 against Mtb20SOG.

With `Cc1cc(C(=O)N[C@@H](CC(=O)N2CCCC[C@@H]2C)C(=O)N[C@@H](C)c2ncc(Cc3ccccc3)[nH]2)no1` [CF-503133], the pIC50 in assay [1] is 5.25 and 5.15; at Mtb20SOG (setting [2]) it was 6.58 and 6.64.

As to `Cc1cc(C(=O)N[C@@H](CC(=O)N2CCC[C@@H]2c2ccccc2)C(=O)N[C@@H](C)c2ncc(Cc3ccccc3)[nH]2)no1` [CF-503134], the pIC50 was 5.13 and 5.12 in assay [1]; 7.05 and 7.24 at Mtb20SOG.

Regarding `C[C@H](NC(=O)[C@H](CC(=O)N1CCCC[C@@H]1C)NC(=O)CC1CCOCC1)c1ncc(Cc2ccccc2)[nH]1` [CF-503135], the pIC50 in assay [1] is 5.04 and 4.87; at Mtb20SOG (setting [2]), 6.35 and 6.41.

Consider `C[C@H](NC(=O)[C@H](CC(=O)N1CCCC[C@@H]1C)NC(=O)CC1CC1)c1ncc(Cc2ccccc2)[nH]1` [CF-503136], for which the results for the pIC50 (in assay [1]; against Mtb20SOG (setting [2])) were 4.98 and 6.03, respectively.

For the compound `C[C@H](NC(=O)[C@H](CC(=O)N1CCC[C@@H]1c1ccccc1)NC(=O)CC1CC1)c1ncc(Cc2ccccc2)[nH]1` [CF-503137], the pIC50 in assay [1] was 4.90 and 4.97; against Mtb20SOG, 7.11 and 7.19.

As for `C[C@H](NC(=O)[C@H](CC(=O)N1CCCC[C@@H]1C)NC(=O)CC1CC1)c1ncc(-c2ccc(F)cc2F)[nH]1` [CF-503138], the pIC50 was 4.93 and 4.98 in assay [1]; 6.77 and 7.07 against Mtb20SOG (setting [2]).

For `C[C@H](NC(=O)[C@H](CC(=O)N1CCCC[C@@H]1C)NC(=O)CC1CCOCC1)c1ncc(-c2ccc(F)cc2F)[nH]1` [CF-503139], the pIC50 in assay [1] was 4.89 and 4.99; against Mtb20SOG, 7.05 and 6.83.

As to `C[C@H](NC(=O)[C@H](CC(=O)N1CCCC[C@@H]1C)NS(=O)(=O)Cc1ccccc1)c1ncc(-c2ccc(F)cc2F)[nH]1` [CF-503140], the negative-log IC50 (pIC50) in assay [1] was 5.21; against Mtb20SOG (setting [2]), 6.42.

For the compound `CC(C)CS(=O)(=O)N[C@@H](CC(=O)N1CCCC[C@@H]1C)C(=O)N[C@@H](C)c1ncc(-c2ccc(F)cc2F)[nH]1` [CF-503141], the figures for the negative logarithm of the IC50 (pIC50) (in assay [1]; against Mtb20SOG (setting [2])) were 5.31 and 6.43, respectively.

Take `C[C@H](NC(=O)[C@H](CC(=O)N1CCCC[C@@H]1C)NS(=O)(=O)c1ccccc1)c1ncc(-c2ccc(F)cc2F)[nH]1` [CF-503142]: the pIC50 in assay [1] is 5.09; against Mtb20SOG (setting [2]) it was 6.19.

On to `Cc1ccc(S(=O)(=O)N[C@@H](CC(=O)N2CCCC[C@@H]2C)C(=O)N[C@@H](C)c2ncc(-c3ccc(F)cc3F)[nH]2)cc1` [CF-503143], for which the values for the negative logarithm of the IC50 (pIC50) (in assay [1]; at Mtb20SOG) were 5.19 and 6.31, respectively.

For `CCS(=O)(=O)N[C@@H](CC(=O)N1CCCC[C@@H]1C)C(=O)N[C@@H](C)c1ncc(-c2ccc(F)cc2F)[nH]1` [CF-503144], the pIC50 in assay [1] was 4.55; on Mtb20SOG (setting [2]), 5.72.

Regarding `C[C@H](NC(=O)[C@H](CC(=O)N1CCCC[C@@H]1C)NCC(=O)c1ccccc1)c1ncc(-c2ccc(F)cc2F)[nH]1` [CF-503145], the pIC50 is 4.82 in assay [1] and 5.00 on Mtb20SOG (setting [2]).

In the case of `C[C@H](NC(=O)[C@H](CC(=O)N1CCCC[C@@H]1C)NC(=O)C1CCC1)c1ncc(-c2ccc(F)cc2F)[nH]1` [CF-503146], the results for the pIC50 (in assay [1]; against Mtb20SOG) were 5.62 and 6.79, respectively.

Take `Cc1cc(C(=O)N[C@@H](CC(=O)N2CCCC[C@@H]2C)C(=O)N[C@@H](C)c2nc3ccccc3[nH]2)no1` [CF-503148]: the pIC50 in assay [1] is 4.76; against Mtb20SOG (setting [2]), 6.04.

In the case of `CC(C)CCC(=O)N[C@@H](CC(=O)N1CCCC[C@@H]1C)C(=O)N[C@@H](C)c1nc2ccccc2[nH]1` [CF-503149], the pIC50 was 4.72 and 4.63 in assay [1]; 6.87 and 6.93 against Mtb20SOG (setting [2]).

For the compound `CC(C)C(=O)CN[C@@H](CC(=O)N1CCCC[C@@H]1C)C(=O)N[C@@H](C)c1ncc(-c2ccc(F)cc2F)[nH]1` [CF-503151], the pIC50 in assay [1] was 5.00; against Mtb20SOG, 4.94.

Turning to `Cc1cc(C(=O)N[C@@H](CC(=O)N2CCC[C@@H]2c2ccccc2)C(=O)N[C@@H](C)c2nc3ccccc3[nH]2)no1` [CF-503152], the pIC50 in assay [1] is 4.96 and 5.01; against Mtb20SOG, 6.74 and 6.90.

For the compound `CC(C)CCC(=O)N[C@@H](CC(=O)N1CCC[C@@H]1c1ccccc1)C(=O)NC(C)c1nc2ccccc2[nH]1` (stereo partly shown) [CF-503153], the pIC50 in assay [1] was 4.70; against Mtb20SOG (setting [2]), 7.54 and 7.28.

Turning to `CC(C)CCS(=O)(=O)N[C@@H](CC(=O)N1CCC[C@@H]1c1ccccc1)C(=O)NC(C)c1nc2ccccc2[nH]1` (stereo partly shown) [CF-503154], the pIC50 in assay [1] is 4.93; against Mtb20SOG (setting [2]), 6.94 and 6.69.

As to `CC1CC(C(=O)N[C@@H](CC(=O)N2CCC[C@@H]2c2ccccc2)C(=O)NC(C)c2nc3ccccc3[nH]2)C1` (stereo partly shown) [CF-503155], the pIC50 in assay [1] was 5.08; at Mtb20SOG, 6.90.

`C[C@H](NC(=O)[C@H](CC(=O)N1CCC[C@@H]1c1ccccc1)NC(=O)CCC(C)(C)C)c1nc2ccccc2[nH]1` [CF-503156]: the negative-log IC50 (pIC50) is 4.78 in assay [1] and 7.06 against Mtb20SOG (setting [2]).

Take `CC(C)CCS(=O)(=O)N[C@@H](CC(=O)N1CCCC[C@@H]1C)C(=O)N[C@@H](C)c1ncc(-c2ccc(F)cc2F)[nH]1` [CF-503157]: the pIC50 in assay [1] is 5.12 and 5.02; against Mtb20SOG (setting [2]) it was 5.97 and 6.16.

Take `C[C@H](NC(=O)[C@H](CC(=O)N1CCCC[C@@H]1C)NC(=O)CCC(C)(C)C)c1ncc(-c2ccc(F)cc2F)[nH]1` [CF-503158]: the pIC50 was 5.28 and 5.07 in assay [1]; 7.57 and 7.66 on Mtb20SOG (setting [2]).

With `CC(C)CCC(=O)N[C@@H](CC(=O)N1CCCC1)C(=O)N[C@@H](C)c1ncc(-c2ccc(F)cc2F)[nH]1` [CF-503159], the pIC50 in assay [1] was 4.98; against Mtb20SOG (setting [2]) it was 5.46.

As to `C[C@H](NC(=O)[C@H](CC(=O)N1CCCC1)NC(=O)CCC(C)(C)C)c1ncc(-c2ccc(F)cc2F)[nH]1` [CF-503160], the pIC50 is 4.99 in assay [1] and 6.10 against Mtb20SOG (setting [2]).

Consider `Cc1cc(C(=O)N[C@@H](CC(=O)N2CCCC2)C(=O)N[C@@H](C)c2nc(-c3ccc(F)cc3F)c[nH]2)no1` [CF-503161], for which the pIC50 in assay [1] was 4.78; against Mtb20SOG, 5.48.

On to `C[C@H](NC(=O)[C@H](CC(=O)N1CCC[C@@H]1C)NC(=O)CCC(C)(C)C)c1ncc(-c2ccc(F)cc2F)[nH]1` [CF-503162], for which the pIC50 is 5.20 and 5.24 in assay [1]; 6.76 and 6.89 on Mtb20SOG (setting [2]).

Turning to `C[C@H](NC(=O)[C@H](CC(=O)N1CCC[C@@H]1C)NC(=O)CCC(C)(C)C)c1nc2ccccc2[nH]1` [CF-503163], the pIC50 is 4.78 in assay [1] and 5.46 against Mtb20SOG.

In the case of `CC(C)CCNc1nc(C(=O)N[C@@H](C)C(=O)NCc2ccc(F)cc2F)cc(N2CCCC2)n1` [CF-503175], the pIC50 in assay [1] was 5.34 and 5.26; against Mtb20SOG (setting [2]) it was 5.34 and 5.25.

In the case of `CC(C)CCS(=O)(=O)N[C@@H](CC(=O)N1CCC[C@@H]1c1ccccc1)C(=O)N[C@@H](C)c1nc2ccccc2[nH]1` [CF-503183], the negative-log IC50 (pIC50) in assay [1] was 4.99 and 5.01 and 5.00; at Mtb20SOG (setting [2]) it was 6.65 and 6.62 and 6.91.

Turning to `CC(C)CCS(=O)(=O)NC(CC(=O)N1CCCC1c1ccccc1)C(=O)NC(C)c1nc2ccccc2[nH]1` (stereo not shown) [CF-503184], the values for the negative logarithm of the IC50 (pIC50) (in assay [1]; at Mtb20SOG) were 4.97 and 5.59, respectively.

Regarding `C[C@H](NC(=O)N(CC(=O)N1CCCC[C@@H]1C)NC(=O)CCC(C)(C)C)c1ncc(-c2ccc(F)cc2F)[nH]1` [CF-503189], the pIC50 in assay [1] was 5.12 and 4.99; on Mtb20SOG (setting [2]) it was 5.13 and 5.09.
